Data from patent US12398119B2, “Piperazine azaspiro derivatives” (PFIZER INC., priority 2018, dated 2025).
Where two headings read alike, the source gives them in different places.

Biological target: T1, Human M4 mAChR (Homo sapiens, UniProt P08173)
T1 construct: host or cells: HEK293 (Sor-L9 HEK293 human/M4/GloSensor Cell Clone Number 40)
T1 sequence (P08173 1-479): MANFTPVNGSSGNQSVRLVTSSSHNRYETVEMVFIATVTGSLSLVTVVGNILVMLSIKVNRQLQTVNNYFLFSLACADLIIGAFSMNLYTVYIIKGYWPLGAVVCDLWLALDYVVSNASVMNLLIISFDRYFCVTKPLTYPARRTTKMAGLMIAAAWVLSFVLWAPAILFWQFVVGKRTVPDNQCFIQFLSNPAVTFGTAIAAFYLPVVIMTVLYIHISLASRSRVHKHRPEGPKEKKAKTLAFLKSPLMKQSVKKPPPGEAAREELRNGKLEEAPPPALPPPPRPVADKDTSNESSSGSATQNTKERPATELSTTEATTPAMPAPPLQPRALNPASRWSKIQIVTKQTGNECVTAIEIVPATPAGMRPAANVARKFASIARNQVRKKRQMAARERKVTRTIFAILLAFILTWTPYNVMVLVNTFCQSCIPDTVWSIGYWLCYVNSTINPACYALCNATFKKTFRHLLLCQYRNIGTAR
Test: Muscarinic hM4 Agonist GloSensor cAMP Assay
Type: cell-based
Outline: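 HEK293 GloSensor cells stably expressing human M4, plated 25,000/well overnight, equilibrated 2 h with GloSensor reagent, then exposed 7 min at room temperature to compound ([…] to 0.3 nM, 0.25% DMSO) plus EC80 isoproterenol. Luminescence normalized to 10 μM ACh (EC100) and DMSO controls; four-parameter fit gave EC50 and maximum asymptote (efficacy).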

[1] = Emax: maximum asymptote of concentration response curve, relative to ACh positive control (EC100) and DMSO, geometric mean, read-out: % maximum effect
[2] = HEK293 human/M4/GloSensor cells, EC80 isoproterenol, geometric mean, number of determinations in parentheses, read-out: EC50

Row | Emax [1] [%] | EC50 [2] [nM] | EC50 (enantiomers reported in footnotes to Table 1, number of determinations in parentheses, read-out: M4 EC50) [nM] | Emax (enantiomers reported in footnotes to Table 1, number of determinations in parentheses, read-out: M4 Emax) [%] | Structure (SMILES)
1 | 47.7 | 425 | – | – | CCOC(=O)N1CC2(CC[C@H](N3CCN(c4ncccc4OC)CC3)C2)C1 [Example 7, ethyl (6S)-6-[4-(3-methoxypyridin-2-yl)piperazin-1-yl]-2-azaspiro[3.4]octane-2-carboxylate]
2 | – | – | 347 | 72.3 | CCOC(=O)N1CC2(CCC(N3CCN(c4ncccc4-c4cnsn4)CC3)C2)C1 (single isomer, unassigned) [enantiomer of Example 34, ethyl 6-{4-[3-(1,2,5-thiadiazol-3-yl)pyridin-2-yl]piperazin-1-yl}-2-azaspiro[3.4]octane-2-carboxylate]
3 | 93.7 | 1.2 | – | – | CCOC(=O)N1CC2(CCC(N3CCN(c4ncccc4-c4cncnc4)CC3)C2)C1 (centres unmarked) [Example 14, ethyl 6-{4-[3-(pyrimidin-5-yl)pyridin-2-yl]piperazin-1-yl}-2-azaspiro[3.4]octane-2-carboxylate]
4 | 92.9 | 12.3 | – | – | CCOC(=O)N1CC2(CC[C@@H](N3CCN(c4nccnc4N4CCOCC4)CC3)C2)C1 [Example 42, ethyl (6R)-6-{4-[3-(morpholin-4-yl)pyrazin-2-yl]piperazin-1-yl}-2-azaspiro[3.4]octane-2-carboxylate]
5 | 94.2 | 304 | – | – | CCOC(=O)N1CC2(CC(N3CCN(c4ncccc4-c4cnccn4)CC3)C2)C1 [Example 35, ethyl 6-{4-[3-(pyrazin-2-yl)pyridin-2-yl]piperazin-1-yl}-2-azaspiro[3.3]heptane-2-carboxylate]
6 | 91.5 | 5.13 | – | – | CCOC(=O)N1CC2(CCC(N3CCN(c4cccnc4OCC(F)(F)F)CC3)C2)C1 (centres unmarked) [Example 10, ethyl 6-{4-[2-(2,2,2-trifluoroethoxy)pyridin-3-yl]piperazin-1-yl}-2-azaspiro[3.4]octane-2-carboxylate]
7 | 81.6 | 12 | – | – | CCOC(=O)N1CC2(CCC(N3CCN(c4ncccc4-c4ccc5nncn5c4)CC3)C2)C1 (centres unmarked) [Example 40, ethyl 6-{4-[3-([1,2,4]triazolo[4,3-a]pyridin-6-yl)pyridin-2-yl]piperazin-1-yl}-2-azaspiro[3.4]octane-2-carboxylate]
